Measurements from PubChem BioAssay (NCI).
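In this assay, cells in 96-well plates receive the compound at five concentrations for 48 hours. Endpoints are linearly interpolated between the surrounding concentrations. Abbreviation: GI50, concentration required for 50% inhibition of growth. The concentration for full growth arrest is given as TGI.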 Where a SMILES comes first, the peptide text is derived from it. [ ]: non-standard residue; d: D form. pGlu = O=C1CC[CH](C(=O)O)N1

Legend:
Experiment in all cases: NCI tumour cell line growth inhibition, 48 h
[1] = system: HCT-15 colon
[2] = system: HL-60(TB) leukemia
[3] = system: HOP-62 NSCLC
[4] = system: HOP-92 NSCLC
[5] = system: HT29 colon
[6] = system: K-562 leukemia
[7] = system: MALME-3M melanoma
[8] = system: NCI-H226 lung
[9] = system: SK-MEL-2 melanoma
[10] = system: SK-OV-3 ovarian
[11] = system: UO-31 renal
[12] = system: M14 melanoma

Row | Compound | TGI [1] | TGI [2] | TGI [3] | TGI [4] | TGI [5] | TGI [6] | TGI [7] | TGI [8] | TGI [9] | TGI [10] | TGI [11] | TGI [12] | GI50 [1] | GI50 [2] | GI50 [5] | GI50 [6] | GI50 [7] | GI50 [9] | GI50 [10]
1 | Nc1nc(Cl)cc(NCC2(CCO)CCC2)n1 | > 100 µM | > 100 µM | > 100 µM | > 100 µM | > 100 µM | > 100 µM | > 100 µM | > 100 µM | > 100 µM | > 100 µM | > 100 µM | – | – | – | – | – | – | – | –
2 | O=C(OC1=CCN(Br)C1=O)C1=C(O)C(=O)N(Br)C1 | > 100 µM | 52.2 µM | 51.7 µM | – | – | > 100 µM | > 100 µM | > 100 µM | > 100 µM | 71.2 µM | > 100 µM | > 100 µM | – | – | – | – | – | – | –
3 | CCCCCCN(CCCCCC)CCC(=O)c1ccc2cc(Br)c3ccccc3c2c1 | > 100 µM | 56.2 µM | > 100 µM | 64.9 µM | > 100 µM | > 100 µM | > 100 µM | > 100 µM | 92.9 µM | > 100 µM | > 100 µM | > 100 µM | – | – | – | – | – | – | –
4 | CC(C)C1CSC2N1C(=O)C2(OCc1ccccc1)C1CC1 (centres undefined) | > 100 µM | > 100 µM | > 100 µM | > 100 µM | > 100 µM | > 100 µM | > 100 µM | > 100 µM | – | > 100 µM | > 100 µM | > 100 µM | – | – | – | – | – | – | –
5 | COc1ccc(/[N+]([O-])=C/c2ccc(OC(=S)S)c(OC)c2)cc1 | > 100 µM | 53.4 µM | > 100 µM | 81 µM | > 100 µM | > 100 µM | > 100 µM | > 100 µM | > 100 µM | > 100 µM | > 100 µM | > 100 µM | – | – | – | – | – | – | –
6 | O=C(Cc1ccc2ccccc2c1)NCc1ccc(C(=O)NCCc2ccccc2)cc1 | > 100 µM | – | > 100 µM | > 100 µM | > 100 µM | > 100 µM | > 100 µM | > 100 µM | > 100 µM | > 100 µM | > 100 µM | > 100 µM | – | – | – | – | – | – | –
7 | COc1ccc(/C=C2\N=C(N3CCCC(CO)C3)NC2=O)cc1 (centres undefined) | > 100 µM | > 100 µM | > 100 µM | > 100 µM | > 100 µM | – | > 100 µM | > 100 µM | > 100 µM | > 100 µM | > 100 µM | > 100 µM | – | – | – | – | – | – | –
8 | ClCc1nc2ccccc2[nH]1 | > 100 µM | > 100 µM | > 100 µM | > 100 µM | > 100 µM | > 100 µM | > 100 µM | > 100 µM | > 100 µM | – | > 100 µM | > 100 µM | – | – | – | – | – | – | –
9 | CCn1c(SCC(=O)N/N=C2\SCC(=O)N2c2ccc(C)cc2)nc2ccccc2c1=O | > 100 µM | > 100 µM | 50.7 µM | – | 31.2 µM | > 100 µM | 45.6 µM | 64.8 µM | > 100 µM | 36 µM | 30.3 µM | > 100 µM | – | – | – | – | – | – | –
10 | FC1(F)ON2CCc3ccccc3C2[C@H]1c1ccccc1 (some centres undefined) | > 100 µM | > 100 µM | > 100 µM | – | > 100 µM | > 100 µM | 88.8 µM | > 100 µM | > 100 µM | > 100 µM | > 100 µM | > 100 µM | > 100 µM | > 100 µM | > 100 µM | > 100 µM | 14.5 µM | > 100 µM | > 100 µM
11 | C=C(/C=C/C=C(\C)CCC=C(C)C)[C@@H]1CC[C@]2([C@H](CCCO)/C(=C(/C)C=O)CC[C@]2(C)O)[C@@H]1O | 34.2 µM | 35.4 µM | – | – | 30.9 µM | 30.9 µM | 29.8 µM | 56.2 µM | 38.5 µM | > 100 µM | 48 µM | 48.2 µM | – | – | – | – | – | – | –
12 | COC(=O)CCc1ccc(CCC(=O)OC)cc1 | > 100 µM | > 100 µM | > 100 µM | > 100 µM | > 100 µM | > 100 µM | > 100 µM | – | > 100 µM | > 100 µM | > 100 µM | > 100 µM | – | – | – | – | – | – | –
13 | C=C1C2CCC3C4(C)CCCC(C)(C(=O)O)C4CCC3(C2)C1OC(=O)/C(C)=C/C (centres undefined) | 61.6 µM | 56.7 µM | > 100 µM | 54.6 µM | > 100 µM | – | > 100 µM | > 100 µM | > 100 µM | 70.2 µM | 52.9 µM | 45.1 µM | – | – | – | – | – | – | –
14 | O=c1[nH]c(NCc2cccnc2)nc2nc[nH]c12 | > 100 µM | – | > 100 µM | > 100 µM | > 100 µM | > 100 µM | > 100 µM | > 100 µM | > 100 µM | > 100 µM | > 100 µM | > 100 µM | – | – | – | – | – | – | –
15 | COC(=O)C(CNC(=O)/C=C/c1ccc(OC)c(OC)c1)NC(=O)/C=C/c1ccc(OC)c(OC)c1 (centres undefined) | > 100 µM | – | > 100 µM | > 100 µM | > 100 µM | > 100 µM | > 100 µM | > 100 µM | > 100 µM | > 100 µM | > 100 µM | > 100 µM | – | – | – | – | – | – | –
16 | CC(C)(C)c1ccc2c(c1)OP1(Oc3c(Cl)cc(Cl)c4cccnc34)(O2)Oc2ccc(C(C)(C)C)cc2O1 | 19.9 µM | 10.1 µM | 20 µM | – | 19.5 µM | > 31.6 µM | 24.9 µM | 29.1 µM | 22.8 µM | 16.5 µM | 19.6 µM | – | – | – | – | – | – | – | –
17 | CC(NC(=O)C1CCC(=O)N1)C(=O)N1CCCC1C(N)=O (stereo not drawn) ([pGlu]-Ala-Pro-NH2; configuration not given here) | > 100 µM | > 100 µM | > 100 µM | > 100 µM | > 100 µM | > 100 µM | > 100 µM | > 100 µM | – | > 100 µM | > 100 µM | > 100 µM | – | – | – | – | – | – | –
18 | S=P1(Sc2ccccc2)Oc2ccc3ccccc3c2-c2c(ccc3ccccc23)O1 | > 100 µM | > 100 µM | > 100 µM | > 100 µM | > 100 µM | > 100 µM | > 100 µM | > 100 µM | > 100 µM | > 100 µM | > 100 µM | – | – | – | – | – | – | – | –
19 | c1ccc2c3c(ccc2c1)-c1[nH]ncc1CCO3 | > 100 µM | 41.2 µM | > 91.9 µM | 57.7 µM | > 100 µM | > 100 µM | > 100 µM | – | 85.3 µM | > 100 µM | 65.2 µM | – | – | – | – | – | – | – | –
